Assay results: US11634396B2 (priority 2021, dated 2023)

These molecules were tested against human mOR (Homo sapiens (Human), UniProt P35372) (assay: cell-based). Details: not given.
Method: CHO Tag-lite human mOR stable cell line from Cisbio (NCBI accession number: NM_000914.3, Bedford, Mass.) were seeded and grown to approximately 80% confluence in Ham F-12 with 10% FBS, 50 U/ml penicillin, 50 μg/ml streptomycin, 2 mM Hepes, and 1 mg/ml geneticin (Invitrogen, Carlsbad, Calif.). Cells were then harvested using accutase (Corning. Coming, N.Y.), centrifuged at 1300 RPM for 5 min, and plated at 5000 cells per 5 μL per well in a 5× dilution of stimulation buffer consisting of the HTRF cAMP Gi kit, water and IBMX at 0.5 mM (Cisbio, Bedford, Mass.) in white HTRF low volume 384 well plates (Cisbio, Bedford, Mass.). Plates were then incubated at 37° C. in 5% CO2 for 10 minutes. For the agonist assay, forskolin was added to a final concentration of 4 μM. […] Test compounds were dissolved in DMSO and water, and then serially diluted to working concentrations such that the concentration of DMSO was less than 0.1%. Diluted test compounds were added at 2.5 μL per well, and plates were incubated at 37° C., and 5% CO2 for 15 minutes, and then at room temperature for 15 minutes. Next 5 μl/well of cAMP Eu-cryptate and 5 μl/well of anti-cAMP-d2 (both diluted 1:20 in lysis buffer) were added, and plates were incubated at room temperature for 1 hour. Following incubation, plates were read in a Synergy Neo2 multi-mode reader (Biotek, Winooski, Vt.). […] For the agonist assay, data was normalized using the maximal DAMGO response. Measurements were performed in triplicate and the dose response was fit using nonlinear regression.

Chain of human mOR (P35372 whole entry): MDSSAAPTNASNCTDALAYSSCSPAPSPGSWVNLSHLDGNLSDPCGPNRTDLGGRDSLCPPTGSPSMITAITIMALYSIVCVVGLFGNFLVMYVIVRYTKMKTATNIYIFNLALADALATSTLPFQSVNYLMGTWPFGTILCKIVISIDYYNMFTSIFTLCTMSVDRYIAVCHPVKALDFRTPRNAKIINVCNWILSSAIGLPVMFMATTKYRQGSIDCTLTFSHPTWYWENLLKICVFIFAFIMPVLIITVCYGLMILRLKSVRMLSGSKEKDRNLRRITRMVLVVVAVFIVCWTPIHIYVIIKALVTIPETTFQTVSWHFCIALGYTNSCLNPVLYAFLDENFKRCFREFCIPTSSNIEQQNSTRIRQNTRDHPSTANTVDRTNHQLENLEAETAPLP

Row | SMILES | IC50
1 | Cc1ccc([C@@H](CC(=O)NC[C@H](Cc2ccc(C(N)=O)c(F)c2)N(C)C)C2(C(F)(F)F)CC2)s1 [Compound 53, 4-((S)-2-(dimethylamino)-3-((S)-3-(5-methylthiophen-2-yl)-3-(1-(trifluoromethyl)cyclopropyl)propanamido)propyl)-2-fluorobenzamide] | < 0.3 µM
2 | CN(C)[C@H](CNC(=O)C[C@H](c1ccsc1)C1(C(F)(F)F)CC1)Cc1ccc(C(N)=O)c(F)c1 [Compound 54, 4-((S)-2-(dimethylamino)-3-((S)-3-(thiophen-3-yl)-3-(1-(trifluoromethyl)cyclopropyl)propanamido)propyl)-2-fluorobenzamide] | > 3 µM
3 | CN(C)[C@H](CNC(=O)C[C@H](c1cncs1)C1(C(F)(F)F)CC1)Cc1ccc(C(N)=O)c(F)c1 [Compound 55, 4-((S)-2-(dimethylamino)-3-((S)-3-(thiazol-5-yl)-3-(1-(trifluoromethyl)cyclopropyl)propanamido)propyl)-2-fluorobenzamide] | < 0.3 µM
4 | Cc1cnc([C@@H](CC(=O)NC[C@H](Cc2ccc(C(N)=O)c(F)c2)N(C)C)C2(C(F)(F)F)CC2)nc1 [Compound 57, 4-((S)-2-(dimethylamino)-3-((S)-3-(5-methylpyrimidin-2-yl)-3-(1-(trifluoromethyl)cyclopropyl)propanamido)propyl)-2-fluorobenzamide] | 0.3 to 3 µM
5 | Cc1ncc([C@H](CC(=O)NC[C@H](Cc2ccc(C(N)=O)c(F)c2)N(C)C)C2(C(F)(F)F)CC2)s1 [Compound 58, 4-((S)-2-(dimethylamino)-3-((R)-3-(2-methylthiazol-5-yl)-3-(1-(trifluoromethyl)cyclopropyl)propanamido)propyl)-2-fluorobenzamide] | > 3 µM
6 | Cc1ncc([C@@H](CC(=O)NC[C@H](Cc2ccc(C(N)=O)c(F)c2)N(C)C)C2(C(F)(F)F)CC2)s1 [Compound 59, 4-((S)-2-(dimethylamino)-3-((S)-3-(2-methylthiazol-5-yl)-3-(1-(trifluoromethyl)cyclopropyl)propanamido)propyl)-2-fluorobenzamide] | < 0.3 µM
7 | CN(C)[C@H](CNC(=O)C[C@H](c1ccncc1F)C1(C(F)(F)F)CC1)Cc1ccc(C(N)=O)c(F)c1 [Compound 61, 4-((S)-2-(dimethylamino)-3-((R)-3-(3-fluoropyridin-4-yl)-3-(1-(trifluoromethyl)cyclopropyl)propanamido)propyl)-2-fluorobenzamide] | > 3 µM
8 | CN(C)[C@H](CNC(=O)C[C@H](CC1CC1)c1ccncc1)Cc1ccc(C(N)=O)c(F)c1 [Compound 62, 4-((S)-3-((S)-4-cyclopropyl-3-(pyridin-4-yl)butanamido)-2-(dimethylamino)propyl)-2-fluorobenzamide] | < 0.3 µM
9 | Cc1ncc([C@@H](CC(=O)NC[C@H](Cc2ccc(C(N)=O)c(F)c2)N(C)C)C2CC2)cn1 [Compound 67, 4-((S)-3-((S)-3-cyclopropyl-3-(2-methylpyrimidin-5-yl)propanamido)-2-(dimethylamino)propyl)-2-fluorobenzamide] | > 3 µM
10 | CN(C)[C@H](CNC(=O)CC(c1ccc(Cl)cn1)C1(C(F)(F)F)CC1)Cc1ccc(C(N)=O)c(F)c1 (stereo partly drawn) [Compound 69, 4-((2S)-3-(3-(5-chloropyridin-2-yl)-3-(1-(trifluoromethyl)cyclopropyl)propanamido)-2-(dimethylamino)propyl)-2-fluorobenzamide] | < 0.3 µM
11 | CN(C)[C@H](CNC(=O)CC(c1ncccn1)C1(C(F)(F)F)CC1)Cc1ccc(C(N)=O)c(F)c1 (stereo partly drawn) [Compound 71, 4-[(2S)-2-(dimethylamino)-3-[3-(pyrimidin-2-yl)-3-[1-(trifluoromethyl)cyclopropyl]propanamido]propyl]-2-fluorobenzamide] | < 0.3 µM
12 | CC(C)[C@H](CC(=O)NC[C@H](Cc1ccc(C(N)=O)c(F)c1)N(C)C)c1cccnc1 [Compound 78, 4-[(2S)-2-(dimethylamino)-3-[(3S)-4-methyl-3-(pyridin-3-yl)pentanamido]propyl]-2-fluorobenzamide] | > 3 µM
13 | Cc1ncc([C@@H](CC(=O)NC[C@H](Cc2ccc(C(N)=O)cc2)N(C)C)C2(C(F)(F)F)CC2)cn1 [Compound 79, 4-((S)-2-(dimethylamino)-3-((R)-3-(2-methylpyrimidin-5-yl)-3-(1-(trifluoromethyl)cyclopropyl)propanamido)propyl)benzamide] | < 0.3 µM
14 | CN[C@H](CNC(=O)C[C@@H](c1ccccc1)C1(C(F)(F)F)CC1)Cc1ccc(C(N)=O)cc1 [Compound 82, 4-((S)-2-(methylamino)-3-((S)-3-phenyl-3-(1-(trifluoromethyl)cyclopropyl)propanamido)propyl)benzamide] | > 3 µM
15 | CNC(=O)c1cc(F)c(C[C@@H](CNC(=O)C[C@H](c2cnc(C)nc2)C2(C(F)(F)F)CC2)N(C)C)c(F)c1 [Compound 105, 4-((S)-2-(dimethylamino)-3-((R)-3-(2-methylpyrimidin-5-yl)-3-(1-(trifluoromethyl)cyclopropyl)propanamido)propyl)-3,5-difluoro-N-methylbenzamide] | 0.3 to 3 µM

Same assay, conditions: CHO Tag-lite human mOR stable cell line; forskolin 4 μM and DAMGO at EC90; read-out: mOR cAMP Antagonist Assay IC50

Row | SMILES | IC50
16 | CC(C)C[C@H](CC(=O)NC[C@H](Cc1ccc(C(N)=O)c(F)c1)N(C)C)c1cccnc1 [Compound 60, 4-((S)-2-(dimethylamino)-3-((R)-5-methyl-3-(pyridin-3-yl)hexanamido)propyl)-2-fluorobenzamide] | < 0.3 µM
17 | CN(C)[C@H](CNC(=O)C[C@@H](c1cncc(F)c1)C(C)(C)C)Cc1ccc(C(N)=O)c(F)c1 [Compound 63, 4-((S)-2-(dimethylamino)-3-((R)-3-(5-fluoropyridin-3-yl)-4,4-dimethylpentanamido)propyl)-2-fluorobenzamide] | < 0.3 µM
18 | CN(C)[C@H](CNC(=O)C[C@@H](CC1CC1)c1cncnc1)Cc1ccc(C(N)=O)c(F)c1 [Compound 64, 4-((S)-3-((R)-4-cyclopropyl-3-(pyrimidin-5-yl)butanamido)-2-(dimethylamino)propyl)-2-fluorobenzamide] | < 0.3 µM
19 | CN(C)[C@H](CNC(=O)CC(c1ccncc1)C1(C(F)(F)F)CC1)Cc1ccc(C(N)=O)c(F)c1 (stereo partly drawn) [Compound 70, 4-[(2S)-2-(dimethylamino)-3-[3-(pyridin-4-yl)-3-[1-(trifluoromethyl)cyclopropyl]propanamido]propyl]-2-fluorobenzamide] | > 3 µM
20 | CNC(=O)c1cc(C)c(C[C@@H](CNC(=O)C[C@H](c2ccc(Cl)cc2)C2(C(F)(F)F)CC2)N(C)C)c(C)c1 [Compound 106, 4-((S)-3-((R)-3-(4-chlorophenyl)-3-(1-(trifluoromethyl)cyclopropyl)propanamido)-2-(dimethylamino)propyl)-3,5-trimethylbenzamide] | > 3 µM

Same assay, conditions: read-out: mOR cAMP Antagonist Assay IC50

Row | SMILES | IC50
21 | Cc1cnc([C@@H](CC(=O)NC[C@H](Cc2ccc(C(N)=O)c(F)c2)N(C)C)C2(C(F)(F)F)CC2)s1 [Compound 56, 4-((S)-2-(dimethylamino)-3-((S)-3-(5-methylthiazol-2-yl)-3-(1-(trifluoromethyl)cyclopropyl)propanamido)propyl)-2-fluorobenzamide] | 0.3 to 3 µM
22 | CN(C)[C@H](CNC(=O)C[C@H](c1ccncc1)C1(C(F)(F)F)CC1)Cc1ccc2[nH]c(=O)ccc2c1 [Compound 103, (R)-N-((S)-2-(dimethylamino)-3-(2-oxo-1,2-dihydroquinolin-6-yl)propyl)-3-(pyridin-4-yl)-3-(1-(trifluoromethyl)cyclopropyl) propanamide] | > 3 µM
